From patent publication US20260072027A1, “Peptides And Method” (Queen Mary University of London, priority 2022, published 2026)
Each block holds one substance with its values, some of them ahead of it. Where no end group is shown, it is not given here. [ ]: non-standard residue; d: D form. Dopa = N[C@@H](Cc1ccc(O)c(O)c1)C(=O)O

Experiments:
[1] = test system: CD4+ T-cells (PBMCs); test: In vitro peptide stimulation and T-cell proliferation assay, CD4+; assay type: cell-based, human
Source text: (§1) In vitro peptide stimulation and T-cell proliferation assay. Peripheral blood mononuclear cells (PBMCs) were freshly isolated from type 1 diabetes and healthy individuals using Ficoll-Hypaque density gradient centrifugation. PBMCs were labelled with the fluorescent dye CellTrace Violet (Invitrogen, Thermo Fisher Scientific) and cultured (2×10^5 cells/well) in round-bottom 96-well plates (Falcon, Becton Dickinson) with RPMI-1640 medium (Gibco, Thermo Fisher Scientific) supplemented with 5% autologous plasma in the presence or not of insulin peptides (20 μg/ml); PPD (10 μg/ml) and anti-CD3 (0.1 μg/ml; clone OKT3) were used as positive control. Two scrambled peptides: […] (SEQ ID NO: 17), […] (SEQ ID NO: 18), and the Exendin 9-39 fragment were used as negative controls. After 7 days, PBMCs were stained with PE-Cy7 anti-CD8 (clone RPA-T8, BD Pharmingen) and FITC anti-CD3 (clone UCHT1, BD Pharmingen). Samples were analysed by using a FACSCanto II (BD Bioscience) to evaluate T-cell proliferation measured as CellTrace Violet dilution. Cytofluorimetric analyses were performed using FlowJo Software (FlowJo, LLC). The results were given as stimulation index (SI), calculated as percentage of stimulated T-cell subset proliferation/percentage of unstimulated T-cell subset proliferation. Assay for detection of peptide specific T cells subsets was done as previously described (detailed in ESM methods, Assay for detection of peptide specific T cells)
(§2) T-cell stimulation with oxPTM-INSPs. To evaluate the immune cell response against the oxPTM-INSPs, we performed CD4+ and CD8+ T cells proliferation experiments using freshly isolated PBMCs (Study cohort 2, Table 1). Response was calculated as stimulatory index (SI) over unstimulated T-cells.

[2] = test system: CD8+ T-cells (PBMCs); test: In vitro peptide stimulation and T-cell proliferation assay, CD8+; assay type: cell-based, human
Source text: as §1, §2

[3] = test system: serum IgG autoantibodies; test: ELISA for autoantibody detection: serum antibody binding to native and oxPTM insulin peptides; parameters: species or system human; details: for % binders, Healthy controls / Mean ± SEM (absorbance, OD), Healthy controls / % binders, Type 1 diabetes: Study cohort 1; for % binders, Type 1 diabetes: cut-off = mean of healthy controls to Nt-INSP plus 3 SEM; for Mean ± SEM (absorbance, OD), Type 1 diabetes: Study cohort 1 sera; for type 1 diabetes binders (IgG autoantibody reactivity): Study cohort 2, N = 18; for Antibody reactivity of serum samples (in words): ELISA
Description: ELISA for autoantibody detection. The ELISA analysis of Nt-INS and oxPTM-INS autoantibodies was performed as previously described [18](detailed in ESM methods, ELISA assay for antibody detection).
Statistical analyses. Statistical analyses were performed using Prism Software 9.0 (GraphPad, San Diego, CA, USA). Cut-off points of positivity (binders) in the antibody ELISA for each peptide were defined by the mean of optical absorbance (O.D) of healthy controls to the corresponding Nt-INSP plus three times the standard error of the mean (SEM). Specificity and sensitivity were evaluated by receiver operating characteristic (ROC) curve analysis. Area under the curve (AUC) is reported as absolute value and was tested for equality according to DeLong et al. Differences in antibody levels and T-cell stimulation indices (SI) between groups were tested by the One way ANOVA or Student's t-tests as appropriate. Correlation analyses were tested by Pearson or Spearman's test, as appropriate. Categorical analyses were performed by Chi-square or McNemar's tests, as appropriate. For each set of experiments, p values were adjusted for multiple comparison using the Holm-Sidak's test. Hierarchical cluster and Principal Component Analysis (PCA) was done using Clustvis software (https://biit.cs.ut.ee/clustvis/) and Prism Software 9.0, respectively.
Antibody reactivity of type 1 diabetes serum against the candidate oxPTM-INSP. Identified peptide candidates were synthesised and exposed to either HOCl or ^●OH to generate oxPTM-INSPs that were first assessed by TOF-MS/ES+TIC to confirm modification (FIG. 17). Antibody response against native INSPs (Nt-INSPs) and oxPTM-INSPs was evaluated by ELISA using sera from Study cohort 1.
ESM Methods ELISA assay for antibody detection. The ELISA analysis of native (Nt-INS) and modified insulin (oxPTM-INS) was performed as previously described. Briefly, the ELISA plate was coated overnight at 4° C. with 100 μl per well of modified or native insulin in 0.05 M carbonate/bicarbonate buffer pH 9.6 at 10 μg/ml. The next day, the plates were washed 3 times with 0.1% Tween PBS, followed by blocking for 2 hours at room temperature with 200 μl per well of 5% BSA in 0.1% Tween PBS. After washing, 100 μl of 1:200-diluted serum samples in 5% BSA-0.1% Tween PBS were added for additional 2 hours incubation. ELISA plates were then washed 3 times with 0.1% Tween PBS followed by probing with anti-human IgG horse radish peroxidase conjugated (HRP, Sigma) at 1:1,000 dilution in 5% BSA-0.1% Tween PBS for another 1.5 hours incubation. The ELISA plates were washed, and 100 μg/ml TMB substrate in 0.1M sodium acetate pH 6.0 plus 2 μl/10 ml of H2O2, were added. Subsequently, the reaction was stopped with 20% v/v sulphuric acid. The optical density (O.D.) was measured at 450 nm using a GENios plate reader and Magellan software (TECAN, Dorset, UK).

Substance: ERGFFYTPKTR (Ac-ERGFFYTPKTR) [INSP-6 with C-terminal arginine]
CD4+ T-cell response, subjects with SI > 1 (%) ([1]; Controls (N = 11)): (36.4%) | CD4+ T-cell response, subjects with SI > 3 (%) ([1]; Controls (N = 11)): (0.0%) | CD4+ T-cell response, subjects with SI > 5 (%) ([1]; Controls (N = 11)): (0.0%) | CD4+ T-cell response, subjects with SI > 10 (%) ([1]; Controls (N = 11)): (0.0%) | CD4+ T-cell response, subjects with SI > 1 (%) ([1]; Type 1 diabetes (N = 18)): (55.6%) | CD4+ T-cell response, subjects with SI > 3 (%) ([1]; Type 1 diabetes (N = 18)): (27.8%) | CD4+ T-cell response, subjects with SI > 5 (%) ([1]; Type 1 diabetes (N = 18)): (21.1%) | CD4+ T-cell response, subjects with SI > 10 (%) ([1]; Type 1 diabetes (N = 18)): (11.1%) | CD8+ T-cell response, subjects with SI > 1 (%) ([2]; Controls (N = 11)): (27.3%) | CD8+ T-cell response, subjects with SI > 3 (%) ([2]; Controls (N = 11)): (0.0%) | CD8+ T-cell response, subjects with SI > 5 (%) ([2]; Controls (N = 11)): (0.0%) | CD8+ T-cell response, subjects with SI > 10 (%) ([2]; Controls (N = 11)): (0.0%) | CD8+ T-cell response, subjects with SI > 1 (%) ([2]; Type 1 diabetes (N = 18)): (44.4%) | CD8+ T-cell response, subjects with SI > 3 (%) ([2]; Type 1 diabetes (N = 18)): (16.7%) | CD8+ T-cell response, subjects with SI > 5 (%) ([2]; Type 1 diabetes (N = 18)): (16.7%) | CD8+ T-cell response, subjects with SI > 10 (%) ([2]; Type 1 diabetes (N = 18)): (16.7%)

Substance: FVNQHLC [INSP-5, insulin B:1-7 peptide]
Antibody reactivity of serum samples (in words) [3]: No significant reactivity

Substance: INSP-3 oxPTM-•OH: INSP-3 peptide oxidised in house by hydroxyl radical (SLYQLENYCN; not fully specified (N-terminus); also: oxidised by hydroxyl radical, modified residues not defined)
% binders, Healthy controls ([3]; in house modifications): 86% | Mean ± SEM (absorbance, OD), Healthy controls ([3]; in house modifications): 0.617 ± 0.042 | % binders, Type 1 diabetes ([3]; in house modifications): 86% | Mean ± SEM (absorbance, OD), Type 1 diabetes ([3]; in house modifications): 0.667 ± 0.044 | Mean ± SEM (absorbance, OD), Type 1 diabetes ([3]; in house modifications, listed as ●OH-modified oxPTM-INSP-3): 0.667±0.044

Substance: INSP-4 oxPTM-HOCI: INSP-4 peptide oxidised in house by HOCl (LVEALYLVCGERGFFYTPKT; also: oxidised by HOCl, modified residues not defined)
% binders, Healthy controls ([3]; in house modifications): 27% | Mean ± SEM (absorbance, OD), Healthy controls ([3]; in house modifications): 0.296 ± 0.022 | % binders, Type 1 diabetes ([3]; in house modifications): 66% | Mean ± SEM (absorbance, OD), Type 1 diabetes ([3]; in house modifications): 0.563 ± 0.053 | Mean ± SEM (absorbance, OD), Type 1 diabetes ([3]; in house modifications, listed as HOCl-modified oxPTM-INSP-4): 0.563±0.053

Substance: INSP-4 oxPTM-•OH: INSP-4 peptide oxidised in house by hydroxyl radical (LVEALYLVCGERGFFYTPKT; also: oxidised by hydroxyl radical, modified residues not defined)
% binders, Healthy controls ([3]; in house modifications): 27% | Mean ± SEM (absorbance, OD), Healthy controls ([3]; in house modifications): 0.344 ± 0.022 | % binders, Type 1 diabetes ([3]; in house modifications): 58% | Mean ± SEM (absorbance, OD), Type 1 diabetes ([3]; in house modifications): 0.539 ± 0.068

Substance: INSP-6 oxPTM-HOCI: INSP-6 peptide oxidised in house by HOCl (ERGFFYTPKT; not fully specified (N-terminus); also: oxidised by HOCl, modified residues not defined)
% binders, Healthy controls ([3]; in house modifications): 25% | Mean ± SEM (absorbance, OD), Healthy controls ([3]; in house modifications): 0.312 ± 0.019 | % binders, Type 1 diabetes ([3]; in house modifications): 43% | Mean ± SEM (absorbance, OD), Type 1 diabetes ([3]; in house modifications): 0.391 ± 0.013

Substance: Nt-INS: native human recombinant insulin
type 1 diabetes binders (IgG autoantibody reactivity) [3]: 33.3%

Substance: YLVCGERGFF [INSP-1, insulin B:16-25 peptide]
Antibody reactivity of serum samples (in words) [3]: No significant reactivity

Substance: ^●OH-INS: insulin modified by hydroxyl radical
type 1 diabetes binders (IgG autoantibody reactivity) [3]: 50%

More lines, main results first:

% binders, Healthy controls ([3]; in silico modifications): 30% | Mean ± SEM (absorbance, OD), Healthy controls ([3]; in silico modifications): 0.357 ± 0.030 | % binders, Type 1 diabetes ([3]; in silico modifications): 100% | Mean ± SEM (absorbance, OD), Type 1 diabetes ([3]; in silico modifications): 0.536 ± 0.021 | type 1 diabetes binders (IgG autoantibody reactivity) [3]: 55.5%
Substance: ERGYY-DOPA-TPKT (ERGYY[Dopa]TPKT) [in silico designed oxPTM-INSP-6 derivative]
CD4+ T-cell response, subjects with SI > 1 (%) ([1]; Controls (N = 11)): (27.3%) | CD4+ T-cell response, subjects with SI > 3 (%) ([1]; Controls (N = 11)): (0.0%) | CD4+ T-cell response, subjects with SI > 5 (%) ([1]; Controls (N = 11)): (0.0%) | CD4+ T-cell response, subjects with SI > 10 (%) ([1]; Controls (N = 11)): (0.0%) | CD4+ T-cell response, subjects with SI > 1 (%) ([1]; Type 1 diabetes (N = 18)): (50.0%) | CD4+ T-cell response, subjects with SI > 3 (%) ([1]; Type 1 diabetes (N = 18)): (5.6%) | CD4+ T-cell response, subjects with SI > 5 (%) ([1]; Type 1 diabetes (N = 18)): (5.2%) | CD4+ T-cell response, subjects with SI > 10 (%) ([1]; Type 1 diabetes (N = 18)): (5.6%) | CD8+ T-cell response, subjects with SI > 1 (%) ([2]; Controls (N = 11)): (18.2%) | CD8+ T-cell response, subjects with SI > 3 (%) ([2]; Controls (N = 11)): (9.10%) | CD8+ T-cell response, subjects with SI > 5 (%) ([2]; Controls (N = 11)): (0.0%) | CD8+ T-cell response, subjects with SI > 10 (%) ([2]; Controls (N = 11)): (0.0%) | CD8+ T-cell response, subjects with SI > 1 (%) ([2]; Type 1 diabetes (N = 18)): (27.8%) | CD8+ T-cell response, subjects with SI > 3 (%) ([2]; Type 1 diabetes (N = 18)): (0.0%) | CD8+ T-cell response, subjects with SI > 5 (%) ([2]; Type 1 diabetes (N = 18)): (0.0%) | CD8+ T-cell response, subjects with SI > 10 (%) ([2]; Type 1 diabetes (N = 18)): (0.0%)

% binders, Healthy controls ([3]; in house modifications): 40% | Mean ± SEM (absorbance, OD), Healthy controls ([3]; in house modifications): 0.452 ± 0.048 | % binders, Type 1 diabetes ([3]; in house modifications): 53% | Mean ± SEM (absorbance, OD), Type 1 diabetes ([3]; in house modifications): 0.473 ± 0.037
Substance: INSP-3 oxPTM-HOCI: INSP-3 peptide oxidised in house by HOCl (SLYQLENYCN; not fully specified (N-terminus); also: oxidised by HOCl, modified residues not defined)

% binders, Healthy controls ([3]; in house modifications): 12% | Mean ± SEM (absorbance, OD), Healthy controls ([3]; in house modifications): 0.280 ± 0.020 | % binders, Type 1 diabetes ([3]; in house modifications): 83% | Mean ± SEM (absorbance, OD), Type 1 diabetes ([3]; in house modifications): 0.461 ± 0.013 | Mean ± SEM (absorbance, OD), Type 1 diabetes ([3]; in house modifications, listed as ●OH-modified oxPTM-INSP-6): 0.461±0.013
Substance: INSP-6 oxPTM-•OH: INSP-6 peptide oxidised in house by hydroxyl radical (ERGFFYTPKT; not fully specified (N-terminus); also: oxidised by hydroxyl radical, modified residues not defined)

Antibody reactivity of serum samples (in words) [3]: No reactivity
Substance: LVEALYLVCG

Antibody reactivity of serum samples (in words) [3]: No significant reactivity
Substance: LVEALYLVCGER [INSP-2, insulin B:11-22 peptide]
